Active and inactive are the calls of the source.
How the values were obtained:
HK-2 [1] = assay: Upregulation of AKT gene expression in human HK-2 cells by KEGG analysis; assay type: functional, cell-based
Lewis lung carcinoma [2] = assay: Antitumor activity against cisplatin-induced mouse Lewis lung carcinoma cell line xenografted in po dosed C57BL/6J mouse assessed as reduction in BUN level in serum preadministered with compound for 2 days followed by cisplatin addition on day 3 and measured 72 hrs post cisplatin administration; assay type: functional, organism-based; conditions: dose 25-100 mg/kg, time 5.0 day
HK-2 [3] = assay: Induction of autophagy in human HK-2 cells assessed as upregulation of beclin1 expression at 2.5 to 10 uM by Western blotting analysis; assay type: functional, cell-based; conditions: dose 2.5-10 µM
Cell membrane [4] = assay: Induction of mitochondrial membrane potential loss in human HK-2 cells assessed as increase in sirtuin 3 expression by Western blot analysis; assay type: cell membranes; conditions: dose 2.5-10 µM
Cell membrane [5] = assay: Induction of mitochondrial membrane potential loss in human HK-2 cells at 2.5 to 10 uM by JC-1 staining based laser microscopic analysis; assay type: cell membranes; conditions: dose 2.5-10 µM
HK-2 [6] = assay: Induction of autophagy in human HK-2 cells assessed as upregulation of p62 expression at 2.5 to 10 uM by Western blotting analysis; assay type: functional, cell-based; conditions: dose 2.5-10 µM
HK-2 [7] = assay: Effect on OCT2 mRNA level in human HK-2 cells by transcriptome sequencing analysis; assay type: functional, cell-based
HK-2 [8] = assay: Upregulation of ATP7A level in human HK-2 cells at 2.5 to 10 uM by Western blot analysis; assay type: functional, cell-based; conditions: dose 2.5-10 µM
HK-2 [9] = assay: Inhibition of cisplatin-induced DNA damage in human HK-2 cells assessed as reduction in p-histone-H2AX level at 2.5 to 10 uM by Western blot analysis; assay type: functional, cell-based; conditions: dose 2.5-10 µM
HK-2 [10] = assay: Inhibition of cisplatin-induced DNA damage in human HK-2 cells assessed as reduction in cleaved-PARP level at 2.5 to 10 uM by Western blot analysis; assay type: functional, cell-based; conditions: dose 2.5-10 µM
HK-2 [11] = assay: Protection against cisplatin-induced apoptosis in human HK-2 cells assessed as improvement in cell number preincubated with compound for 2 hrs followed by cisplatin induction and measured after 48 hrs by light microscopic analysis; assay type: functional, cell-based; conditions: dose 2.5-10 µM, time 50.0 hrs
Mus musculus [12] = assay: (§1) Protection against cisplatin-induced nephrotoxicity in C57BL6/J mouse assessed as reduction in BUN level in kidney at 25 to 100 mg/kg, po preadministered with compound for 2 days followed by cisplatin addition on day 3 and measured 72 hrs post cisplatin administration; assay type: functional, organism-based; conditions: dose 25-100 mg/kg, time 5.0 day
HK-2 [13] = assay: Effect on ATP7A mRNA level in human HK-2 cells by transcriptome sequencing analysis; assay type: functional, cell-based; conditions: dose 2.5-10 µM
HK-2 [14] = assay: Induction of autophagy in human HK-2 cells assessed as upregulation of LC3II expression at 2.5 to 10 uM by Western blotting analysis; assay type: functional, cell-based; conditions: dose 2.5-10 µM
Lewis lung carcinoma [15] = assay: (§2) Antitumor activity against cisplatin-induced mouse Lewis lung carcinoma cell line xenografted C57BL/6J mouse assessed as reduction in tumor mass at 25 to 100 mg/kg, po preadministered with compound for 2 days followed by cisplatin addition on day 3 and measured 72 hrs post cisplatin administration; assay type: functional, organism-based; conditions: dose 25-100 mg/kg, time 5.0 day
NCI-H1299 = assay: Cytotoxicity against human NCI-H1299 cells; assay type: functional, cell-based
HK-2 [16] = assay: Protection against cisplatin-induced apoptosis in human HK-2 cells assessed as reduction in BAX expression preincubated with compound for 2 hrs followed by cisplatin induction and measured after 48 hrs by Western blotting analysis; assay type: functional, cell-based; conditions: dose 2.5-10 µM, time 50.0 hrs
HK-2 [17] = assay: Inhibition of cisplatin-induced DNA damage in human HK-2 cells assessed as […] in comet tail length by comet assay; assay type: functional, cell-based; conditions: dose 2.5-10 µM
HK-2 [18] = assay: Protection against cisplatin-induced apoptosis in human HK-2 cells assessed as improvement in cell morphology preincubated with compound for 2 hrs followed by cisplatin induction and measured after 48 hrs by light microscopic analysis; assay type: functional, cell-based; conditions: dose 2.5-10 µM, time 50.0 hrs
HK-2 [19] = assay: Effect on OCT1 mRNA level in human HK-2 cells by transcriptome sequencing analysis; assay type: functional, cell-based
Lewis lung carcinoma [20] = assay: as §2, with “inflammatory cell infiltration” for “reduction in tumor mass”, “50” for “100”, “administration by H and E staining based analysis” for “administration”; assay type: functional, organism-based; conditions: dose 25-50 mg/kg, time 5.0 day
HK-2 [21] = assay: Induction of autophagy in human HK-2 cells assessed as […] at 2.5 to 10 uM by Western blotting analysis; assay type: functional, cell-based; conditions: dose 2.5-10 µM
HK-2 [22] = assay: Upregulation of ATP7B level in human HK-2 cells at 2.5 to 10 uM by Western blot analysis; assay type: functional, cell-based; conditions: dose 2.5-10 µM
HK-2 [23] = assay: Reduction in intracellular cisplatin accumulation in human HK-2 cells by ICP-MS analysis; assay type: functional, cell-based; conditions: dose 2.5-10 µM
Cell membrane [24] = assay: Induction of mitochondrial membrane potential loss in human HK-2 cells assessed as increase in OPA1 expression by Western blot analysis; assay type: cell membranes; conditions: dose 2.5-10 µM
HK-2 [25] = assay: Induction of autophagy in human HK-2 cells assessed as upregulation of ATG5 expression at 2.5 to 10 uM by Western blotting analysis; assay type: functional, cell-based; conditions: dose 2.5-10 µM
HK-2 [26] = assay: Induction of autophagy in human HK-2 cells assessed as upregulation of AMPKalpha expression at 2.5 to 10 uM by Western blotting analysis; assay type: functional, cell-based; conditions: dose 2.5-10 µM
HK-2 [27] = assay: Effect on ATP7B mRNA level in human HK-2 cells by transcriptome sequencing analysis; assay type: functional, cell-based; conditions: dose 2.5-10 µM
HK-2 [28] = assay: Protection against cisplatin-induced apoptosis in human HK-2 cells assessed as reduction in cleaved caspase 3 expression preincubated with compound for 2 hrs followed by cisplatin induction and measured after 48 hrs by Western blot analysis; assay type: functional, cell-based; conditions: dose 2.5-10 µM, time 50.0 hrs
HK-2 [29] = assay: Upregulation of AMPK gene expression in human HK-2 cells by KEGG analysis; assay type: functional, cell-based
HK-2 [30] = assay: Induction of autophagy in human HK-2 cells assessed as upregulation of PI3K class III expression at 2.5 to 10 uM by Western blotting analysis; assay type: functional, cell-based; conditions: dose 2.5-10 µM
[31] = Antitumor activity against cisplatin-induced mouse Lewis lung carcinoma cell line xenografted C57BL/6J mouse assessed as reduction in tumor mass at 25 to 50 mg/kg, po preadministered with compound for 2 days followed by cisplatin addition on day 3 and measured 72 hrs post cisplatin administration; assay type: functional; parameters: scale not given: the % may be the effect or the level left; conditions: dose 25-50 mg/kg, time 5 day
Lewis lung carcinoma [32] = assay: Cytotoxicity against mouse Lewis lung carcinoma cell line; assay type: functional, cell-based
HK-2 [33] = assay: Upregulation of ATP7A mRNA level in human HK-2 cells at 2.5 to 10 uM by RT-qPCR analysis; assay type: functional, cell-based; conditions: dose 2.5-10 µM
HK-2 [34] = assay: Effect on SLC47A1 mRNA level in human HK-2 cells by transcriptome sequencing analysis; assay type: functional, cell-based
NCI-H460 = assay: Cytotoxicity against human NCI-H460 cells; assay type: functional, cell-based
HK-2 [35] = assay: Protection against cisplatin-induced apoptosis in human HK-2 cells preincubated with compound for 2 hrs followed by cisplatin induction and measured after 48 hrs by FITC/PI staining based flow cytometry analysis; assay type: functional, cell-based; conditions: dose 2.5-10 µM, time 50.0 hrs
HK-2 [36] = assay: Upregulation of CTR1 mRNA level in human HK-2 cells at 2.5 to 10 uM by RT-qPCR analysis; assay type: functional, cell-based; conditions: dose 2.5-10 µM
HK-2 [37] = assay: Effect on MRP1 mRNA level in human HK-2 cells by transcriptome sequencing analysis; assay type: functional, cell-based
Mus musculus [38] = assay: as §1, with “infiltration of inflammatory cells” for “BUN level in kidney”, “at” for “at 25 to”, “administration by H and E staining based analysis” for “administration”; assay type: functional, organism-based; conditions: time 5.0 day
HK-2 [39] = assay: Upregulation of PI3K gene expression in human HK-2 cells by KEGG analysis; assay type: functional, cell-based
HK-2 [40] = assay: Effect on CTR1 mRNA level in human HK-2 cells by transcriptome sequencing analysis; assay type: functional, cell-based

COc1c(C=O)c(OC)c(C(=O)c2ccccc2)c2c1CC1CC/C(C)=C/CC(C)(C)/C=C/CC1(C)O2 (centres undefined)
inactive: Activity (HK-2 [7]) | Activity (HK-2 [19]) | Activity (HK-2 [34]) | Activity (HK-2 [37]) | Activity (HK-2 [40])
active: Activity (HK-2 [1]) | Activity (Lewis lung carcinoma [2]) | Activity (HK-2 [3]) | Activity (Cell membrane [4]) | Activity (Cell membrane [5]) | Activity (HK-2 [6]) | Activity (HK-2 [8]) | inhibition (HK-2 [9]) | inhibition (HK-2 [10]) | Activity (HK-2 [11]) Dose-Dependent Effect | Activity (Mus musculus [12]) | Activity (HK-2 [13]) Dose-Dependent Effect | Activity (HK-2 [14]) | Activity (Lewis lung carcinoma [15]) | Activity (NCI-H1299) | Activity (HK-2 [16]) Dose-Dependent Effect | inhibition (HK-2 [17]) Dose-Dependent Effect | Activity (HK-2 [18]) Dose-Dependent Effect | Activity (Lewis lung carcinoma [20]) | Activity (HK-2 [21]) | Activity (HK-2 [22]) | Activity (HK-2 [23]) Dose-Dependent Effect | Activity (Cell membrane [24]) | Activity (HK-2 [25]) | Activity (HK-2 [26]) | Activity (HK-2 [27]) Dose-Dependent Effect | Activity (HK-2 [28]) Dose-Dependent Effect | Activity (HK-2 [29]) | Activity (HK-2 [30]) | Activity (Lewis lung carcinoma [32]) | Activity (HK-2 [33]) | Activity (NCI-H460) | Activity (HK-2 [35]) Dose-Dependent Effect | Activity (HK-2 [36]) | Activity (Mus musculus [38]) | Activity (HK-2 [39])
31.4%: Activity [31]

COc1c(CO)c(OC)c(C(=O)c2ccccc2)c2c1C[C@H]1CC/C(C)=C/CC(C)(C)/C=C/C[C@]1(C)O2
inactive: Activity (HK-2 [7]) | Activity (HK-2 [19]) | Activity (HK-2 [34]) | Activity (HK-2 [37]) | Activity (HK-2 [40])
28.1%: Activity [31]
active: Activity (HK-2 [1]) | Activity (Lewis lung carcinoma [2]) | Activity (HK-2 [3]) | Activity (Cell membrane [4]) | Activity (Cell membrane [5]) | Activity (HK-2 [6]) | Activity (HK-2 [8]) | inhibition (HK-2 [9]) | inhibition (HK-2 [10]) | Activity (HK-2 [11]) Dose-Dependent Effect | Activity (Mus musculus [12]) | Activity (HK-2 [13]) Dose-Dependent Effect | Activity (HK-2 [14]) | Activity (Lewis lung carcinoma [15]) | Activity (NCI-H1299) | Activity (HK-2 [16]) Dose-Dependent Effect | inhibition (HK-2 [17]) Dose-Dependent Effect | Activity (HK-2 [18]) Dose-Dependent Effect | Activity (Lewis lung carcinoma [20]) | Activity (HK-2 [21]) | Activity (HK-2 [22]) | Activity (HK-2 [23]) Dose-Dependent Effect | Activity (Cell membrane [24]) | Activity (HK-2 [25]) | Activity (HK-2 [26]) | Activity (HK-2 [27]) Dose-Dependent Effect | Activity (HK-2 [28]) Dose-Dependent Effect | Activity (HK-2 [29]) | Activity (HK-2 [30]) | Activity (Lewis lung carcinoma [32]) | Activity (HK-2 [33]) | Activity (NCI-H460) | Activity (HK-2 [35]) Dose-Dependent Effect | Activity (HK-2 [36]) | Activity (Mus musculus [38]) | Activity (HK-2 [39])

Reference: ChEMBL document CHEMBL5550222, “Synthesis and Biological Evaluation of Novel Psidium Meroterpenoid Derivatives against Cisplatin-Induced Acute Kidney Injury” (J Med Chem, 2024)
